Measured values as given in ChEMBL document CHEMBL1201861, “Genomics of Drug Sensitity in Cancer screening data, Wellcome Trust Sanger Institute”.

How the values were obtained:
RPMI-7951 = assay: cells; assay type: functional, cell-based; conditions: Homo sapiens
Description: SANGER: Inhibition of human RPMI-7951 cell growth in a cell viability assay.

NB12 = assay: cells; assay type: functional, cell-based; conditions: Homo sapiens;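 note: growth inhibition of human NB12 cells, read out by a cell viability assay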
Description: SANGER: Inhibition of human NB12 cell growth in a cell viability assay.

UMUC3 = assay: cells; assay type: functional, cell-based; conditions: Homo sapiens;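 note: growth inhibition of human UM-UC-3 cells, read out with a cell viability assay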
Description: SANGER: Inhibition of human UM-UC-3 cell growth in a cell viability assay.

HSC-3 = assay: cells; assay type: functional, cell-based; conditions: Homo sapiens
Description: SANGER: Inhibition of human HSC-3 cell growth in a cell viability assay.

PF-382 = assay: cells; assay type: functional, cell-based; conditions: Homo sapiens
Description: SANGER: Inhibition of human PF-382 cell growth in a cell viability assay.

J82 = assay: cells; assay type: functional, cell-based; conditions: Homo sapiens;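 note: growth inhibition of J82 cells, read out with a cell viability assay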
Description: SANGER: Inhibition of human J82 cell growth in a cell viability assay.

M14 = assay: cells; assay type: functional, cell-based; conditions: Homo sapiens;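 note: growth inhibition of M14 cells, read out with a cell viability assay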
Description: SANGER: Inhibition of human M14 cell growth in a cell viability assay.

OAW-42 = assay: cells; assay type: functional, cell-based; conditions: Homo sapiens;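 note: growth inhibition of OAW-42 cells, read out with a cell viability assay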
Description: SANGER: Inhibition of human OAW-42 cell growth in a cell viability assay.

KYSE-410 = assay: cells; assay type: functional, cell-based; conditions: Homo sapiens;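 note: growth inhibition of KYSE-410 cells, measured through a cell viability readout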
Description: SANGER: Inhibition of human KYSE-410 cell growth in a cell viability assay.

YT = assay: cells; assay type: functional, cell-based; conditions: Homo sapiens
Description: SANGER: Inhibition of human YT cell growth in a cell viability assay.

BFTC-909 = assay: cells; assay type: functional, cell-based; conditions: Homo sapiens
Description: SANGER: Inhibition of human BFTC-909 cell growth in a cell viability assay.

JIYOYE = assay: cells; assay type: functional, cell-based; conditions: Homo sapiens
Description: SANGER: Inhibition of human JiyoyeP-2003 cell growth in a cell viability assay.

LU-99A = assay: cells; assay type: functional, cell-based; conditions: Homo sapiens;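 note: growth inhibition of LU-99A cells, read out with a cell viability assay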
Description: SANGER: Inhibition of human LU-99A cell growth in a cell viability assay.

OVCAR-3 = assay: cells; assay type: functional, cell-based; conditions: Homo sapiens;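 note: growth inhibition of human OVCAR-3 cells, determined by a cell viability assay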
Description: SANGER: Inhibition of human OVCAR-3 cell growth in a cell viability assay.

DMS-153 = assay: cells; assay type: functional, cell-based; conditions: Homo sapiens
Description: SANGER: Inhibition of human DMS-153 cell growth in a cell viability assay.

MDA-MB-453 = assay: cells; assay type: functional, cell-based; conditions: Homo sapiens
Description: SANGER: Inhibition of human MDA-MB-453 cell growth in a cell viability assay.

LCLC-97TM1 = assay: cells; assay type: functional, cell-based; conditions: Homo sapiens;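 note: cell viability assay measuring growth inhibition of human LCLC-97TM1 cells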
Description: SANGER: Inhibition of human LCLC-97TM1 cell growth in a cell viability assay.

NCI-H1993 = assay: cells; assay type: functional, cell-based; conditions: Homo sapiens;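 note: growth inhibition of the cancer cell line, assessed with a cell viability assay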
Description: SANGER: Inhibition of human NCI-H1993 cell growth in a cell viability assay.

NB1 = assay: cells; assay type: functional, cell-based; conditions: Homo sapiens
Description: SANGER: Inhibition of human NB1 cell growth in a cell viability assay.

EGI-1 = assay: cells; assay type: functional, cell-based; conditions: Homo sapiens;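 note: cell viability readout used to gauge growth inhibition of EGI-1 cells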
Description: SANGER: Inhibition of human EGI-1 cell growth in a cell viability assay.

BT-20 = assay: cells; assay type: functional, cell-based; conditions: Homo sapiens;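 note: cell viability assay measuring suppression of growth in human BT-20 cells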
Description: SANGER: Inhibition of human BT-20 cell growth in a cell viability assay.

GMS-10 = assay: cells; assay type: functional, cell-based; conditions: Homo sapiens;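 note: growth inhibition of GMS-10 cells, read out as cell viability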
Description: SANGER: Inhibition of human GMS-10 cell growth in a cell viability assay.

Ca9-22 = assay: cells; assay type: functional, cell-based; conditions: Homo sapiens;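 note: growth inhibition of Ca9-22 cells, read out with a cell viability assay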
Description: SANGER: Inhibition of human Ca9-22 cell growth in a cell viability assay.

LU-165 = assay: cells; assay type: functional, cell-based; conditions: Homo sapiens
Description: SANGER: Inhibition of human LU-165 cell growth in a cell viability assay.

NCI-H187 = assay: cells; assay type: functional, cell-based; conditions: Homo sapiens;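 note: growth inhibition of NCI-H187 cells, read out as cell viability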
Description: SANGER: Inhibition of human NCI-H187 cell growth in a cell viability assay.

NCI-H2081 = assay: cells; assay type: functional, cell-based; conditions: Homo sapiens;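 note: growth inhibition of human NCI-H2081 cells, read out with a cell viability assay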
Description: SANGER: Inhibition of human NCI-H2081 cell growth in a cell viability assay.

AGS = assay: cells; assay type: functional, cell-based; conditions: Homo sapiens;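 note: growth inhibition of AGS cells, determined with a cell viability assay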
Description: SANGER: Inhibition of human AGS cell growth in a cell viability assay.

YAPC = assay: cells; assay type: functional, cell-based; conditions: Homo sapiens;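 note: growth inhibition of YAPC cells, measured with a cell viability assay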
Description: SANGER: Inhibition of human YAPC cell growth in a cell viability assay.

K052 = assay: cells; assay type: functional, cell-based; conditions: Homo sapiens;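 note: Read-out from a cell viability assay, IC50 reflecting suppression of K052 cell growth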
Description: SANGER: Inhibition of human K052 cell growth in a cell viability assay.

NCI-H1693 = assay: cells; assay type: functional, cell-based; conditions: Homo sapiens;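 note: growth inhibition of the human cell line, read out with a cell viability assay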
Description: SANGER: Inhibition of human NCI-H1693 cell growth in a cell viability assay.

D-542MG = assay: cells; assay type: functional, cell-based; conditions: Homo sapiens
Description: SANGER: Inhibition of human D-542MG cell growth in a cell viability assay.

TYK-nu = assay: cells; assay type: functional, cell-based; conditions: Homo sapiens;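 note: growth inhibition of human TYK-nu cells, read out by a cell viability assay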
Description: SANGER: Inhibition of human TYK-nu cell growth in a cell viability assay.

HuP-T4 = assay: cells; assay type: functional, cell-based; conditions: Homo sapiens;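 note: cell viability assay measuring how much HuP-T4 cell growth is inhibited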
Description: SANGER: Inhibition of human HuP-T4 cell growth in a cell viability assay.

A2058 = assay: cells; assay type: functional, cell-based; conditions: Homo sapiens;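 note: reduction of A2058 cell growth, read out with a viability assay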
Description: SANGER: Inhibition of human A2058 cell growth in a cell viability assay.

P31-FUJ = assay: cells; assay type: functional, cell-based; conditions: Homo sapiens;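 note: growth inhibition of P31-FUJ cells, read out with a viability assay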
Description: SANGER: Inhibition of human P31-FUJ cell growth in a cell viability assay.

MDA-MB-134-VI = assay: cells; assay type: functional, cell-based; conditions: Homo sapiens
Description: SANGER: Inhibition of human MDA-MB-134-VI cell growth in a cell viability assay.

MDA-MB-157 = assay: cells; assay type: functional, cell-based; conditions: Homo sapiens
Description: SANGER: Inhibition of human MDA-MB-157 cell growth in a cell viability assay.

NCI-H719 = assay: cells; assay type: functional, cell-based; conditions: Homo sapiens;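 note: growth inhibition of the cultured cell line, read out with a viability assay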
Description: SANGER: Inhibition of human NCI-H719 cell growth in a cell viability assay.

CAKI-1 = assay: cells; assay type: functional, cell-based; conditions: Homo sapiens;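 note: growth inhibition of CAKI-1 cells, measured by a cell viability assay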
Description: SANGER: Inhibition of human CAKI-1 cell growth in a cell viability assay.

C32 = assay: cells; assay type: functional, cell-based; conditions: Homo sapiens;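 note: cell viability assay, with IC50 reflecting inhibition of C32 cell growth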
Description: SANGER: Inhibition of human C32 cell growth in a cell viability assay.

SR = assay: cells; assay type: functional, cell-based; conditions: Homo sapiens
Description: SANGER: Inhibition of human SR cell growth in a cell viability assay.

BL-41 = assay: cells; assay type: functional, cell-based; conditions: Homo sapiens;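 note: growth inhibition of human BL-41 cells, read out with a cell viability assay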
Description: SANGER: Inhibition of human BL-41 cell growth in a cell viability assay.

TE-441-T = assay: cells; assay type: functional, cell-based; conditions: Homo sapiens
Description: SANGER: Inhibition of human TE-441-T cell growth in a cell viability assay.

UACC-812 = assay: cells; assay type: functional, cell-based; conditions: Homo sapiens
Description: SANGER: Inhibition of human UACC-812 cell growth in a cell viability assay.

CESS = assay: SANGER: Inhibition of human CESS cell growth in a cell viability assay.; assay type: functional, cell-based
H4 = assay: cells; assay type: functional, cell-based; conditions: Homo sapiens
Description: SANGER: Inhibition of human H4 cell growth in a cell viability assay.

NUGC-3 = assay: cells; assay type: functional, cell-based; conditions: Homo sapiens;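 note: growth inhibition of human NUGC-3 cells, read out with a cell viability assay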
Description: SANGER: Inhibition of human NUGC-3 cell growth in a cell viability assay.

CPC-N = assay: cells; assay type: functional, cell-based; conditions: Homo sapiens;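 note: growth inhibition of CPC-N cells, with a cell viability assay as the readout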
Description: SANGER: Inhibition of human CPC-N cell growth in a cell viability assay.

LC4-1 = assay: cells; assay type: functional, cell-based; conditions: Homo sapiens;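 note: growth inhibition of LC4-1 cells, read out with a cell viability assay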
Description: SANGER: Inhibition of human LC4-1 cell growth in a cell viability assay.

SK-HEP1 = assay: cells; assay type: functional, cell-based, SK-HEP-1; conditions: Homo sapiens;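 note: cell viability readout used to quantify reduction in proliferation of human SK-HEP-1 cells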
Description: SANGER: Inhibition of human SK-HEP-1 cell growth in a cell viability assay.

NCI-H2171 = assay: cells; assay type: functional, cell-based; conditions: Homo sapiens;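 note: growth inhibition of human NCI-H2171 cells, read out by a cell viability assay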
Description: SANGER: Inhibition of human NCI-H2171 cell growth in a cell viability assay.

SK-MM-2 = assay: cells; assay type: functional, cell-based; conditions: Homo sapiens;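 note: growth inhibition of human SK-MM-2 cells, read out with a cell viability assay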
Description: SANGER: Inhibition of human SK-MM-2 cell growth in a cell viability assay.

U-251 = assay: cells; assay type: functional, cell-based; conditions: Homo sapiens;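 note: growth inhibition of human U-251 cells, read out through a cell viability assay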
Description: SANGER: Inhibition of human U251 cell growth in a cell viability assay.

RERF-LC-MS = assay: cells; assay type: functional, cell-based; conditions: Homo sapiens;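 note: growth inhibition of human RERF-LC-MS cells, read out by a cell viability assay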
Description: SANGER: Inhibition of human RERF-LC-MS cell growth in a cell viability assay.

SNU-16 = assay: cells; assay type: functional, cell-based; conditions: Homo sapiens;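 note: growth inhibition of human SNU-16 cells, determined with a cell viability readout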
Description: SANGER: Inhibition of human NCI-SNU-16 cell growth in a cell viability assay.

Capan-2 = assay: cells; assay type: functional, cell-based; conditions: Homo sapiens;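 note: Capan-2 cell growth inhibition, read out with a viability assay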
Description: SANGER: Inhibition of human Capan-2 cell growth in a cell viability assay.

NCI-H64 = assay: cells; assay type: functional, cell-based; conditions: Homo sapiens;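 note: growth inhibition of NCI-H64 cells, read out with a cell viability assay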
Description: SANGER: Inhibition of human NCI-H64 cell growth in a cell viability assay.

NCI-H2030 = assay: cells; assay type: functional, cell-based; conditions: Homo sapiens;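 note: growth inhibition of human NCI-H2030 cells, read out by a cell viability assay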
Description: SANGER: Inhibition of human NCI-H2030 cell growth in a cell viability assay.

NCI-H810 = assay: cells; assay type: functional, cell-based; conditions: Homo sapiens;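 note: IC50 reflects inhibition of cancer cell line growth, read out with a cell viability assay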
Description: SANGER: Inhibition of human NCI-H810 cell growth in a cell viability assay.

MEL-JUSO = assay: cells; assay type: functional, cell-based; conditions: Homo sapiens;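 note: growth inhibition of human MEL-JUSO cells, read out with a cell viability assay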
Description: SANGER: Inhibition of human MEL-JUSO cell growth in a cell viability assay.

OE19 = assay: cells; assay type: functional, cell-based; conditions: Homo sapiens;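 note: growth inhibition of OE19 cells, measured through a cell viability read-out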
Description: SANGER: Inhibition of human OE19 cell growth in a cell viability assay.

KYSE-140 = assay: cells; assay type: functional, cell-based; conditions: Homo sapiens;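 note: cell viability assay measuring growth inhibition in human KYSE-140 cells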
Description: SANGER: Inhibition of human KYSE-140 cell growth in a cell viability assay.

COLO-680N = assay: cells; assay type: functional, cell-based; conditions: Homo sapiens;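 note: cell viability assay used to measure inhibition of COLO-680N cell growth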
Description: SANGER: Inhibition of human COLO-680N cell growth in a cell viability assay.

G-402 = assay: cells; assay type: functional, cell-based; conditions: Homo sapiens
Description: SANGER: Inhibition of human G-402 cell growth in a cell viability assay.

Structure (SMILES): Fc1cc(-c2cc[nH]/c(=N/c3ccc(-n4cnc(N5CCOCC5)n4)cc3)n2)cc(N2CCOCC2)c1
- IC50 (RPMI-7951): 721 nM
- IC50 (NB12): 383 nM
- IC50 (UMUC3): 1270 nM
- IC50 (HSC-3): 713 nM
- IC50 (PF-382): 476 nM
- IC50 (J82): 800 nM
- IC50 (M14): 342 nM
- IC50 (OAW-42): 877 nM
- IC50 (KYSE-410): 1280 nM
- IC50 (YT): 204 nM
- IC50 (BFTC-909): 838 nM
- IC50 (JIYOYE): 263 nM
- IC50 (LU-99A): 740 nM
- IC50 (OVCAR-3): 567 nM
- IC50 (DMS-153): 1240 nM
- IC50 (MDA-MB-453): > 5120 nM
- IC50 (LCLC-97TM1): 163 nM
- IC50 (NCI-H1993): 2280 nM
- IC50 (NB1): 447 nM
- IC50 (EGI-1): 686 nM
- IC50 (BT-20): 493 nM
- IC50 (GMS-10): 2840 nM
- IC50 (Ca9-22): 389 nM
- IC50 (LU-165): 825 nM
- IC50 (NCI-H187): 2790 nM
- IC50 (NCI-H2081): 1500 nM
- IC50 (AGS): 415 nM
- IC50 (YAPC): 2290 nM
- IC50 (K052): 508 nM
- IC50 (NCI-H1693): > 5120 nM
- IC50 (D-542MG): 357 nM
- IC50 (TYK-nu): 2620 nM
- IC50 (HuP-T4): 3260 nM
- IC50 (A2058): 500 nM
- IC50 (P31-FUJ): 4640 nM
- IC50 (MDA-MB-134-VI): 4680 nM
- IC50 (MDA-MB-157): 457 nM
- IC50 (NCI-H719): 2240 nM
- IC50 (CAKI-1): 334 nM
- IC50 (C32): > 5120 nM
- IC50 (SR): 122 nM
- IC50 (BL-41): 307 nM
- IC50 (TE-441-T): 316 nM
- IC50 (UACC-812): 4420 nM
- IC50 (CESS): 341 nM
- IC50 (H4): 439 nM
- IC50 (NUGC-3): 687 nM
- IC50 (CPC-N): 4220 nM
- IC50 (LC4-1): 431 nM
- IC50 (SK-HEP1): 410 nM
- IC50 (NCI-H2171): 792 nM
- IC50 (SK-MM-2): 1270 nM
- IC50 (U-251): 1310 nM
- IC50 (RERF-LC-MS): 874 nM
- IC50 (SNU-16): > 5120 nM
- IC50 (Capan-2): 1010 nM
- IC50 (NCI-H64): 862 nM
- IC50 (NCI-H2030): 169 nM
- IC50 (NCI-H810): 208 nM
- IC50 (MEL-JUSO): 286 nM
- IC50 (OE19): 1100 nM
- IC50 (KYSE-140): 1050 nM
- IC50 (COLO-680N): 565 nM
- IC50 (G-402): 258 nM

Structure (SMILES): Cc1n[nH]c2ccc(-c3cncc(OC[C@@H](N)Cc4c[nH]c5ccccc45)c3)cc12 [A-443654]
- IC50 (PF-382): 638 nM
- IC50 (YT): > 1020 nM
- IC50 (JIYOYE): 188 nM
- IC50 (DMS-153): 669 nM
- IC50 (NB1): 117 nM
- IC50 (LU-165): 620 nM
- IC50 (NCI-H187): 464 nM
- IC50 (NCI-H2081): > 1020 nM
- IC50 (K052): > 1020 nM
- IC50 (P31-FUJ): > 1020 nM
- IC50 (MDA-MB-134-VI): 489 nM
- IC50 (NCI-H719): > 1020 nM
- IC50 (SR): 184 nM
- IC50 (BL-41): 96.3 nM
- IC50 (TE-441-T): 798 nM
- IC50 (CESS): 191 nM
- IC50 (CPC-N): 304 nM
- IC50 (LC4-1): 217 nM
- IC50 (NCI-H2171): > 1020 nM
- IC50 (SK-MM-2): 623 nM
- IC50 (SNU-16): > 1020 nM
- IC50 (NCI-H64): > 1020 nM

Structure (SMILES): Cc1nc(Nc2ncc(C(=O)Nc3c(C)cccc3Cl)s2)cc(N2CCN(CCO)CC2)n1 [DASATINIB]
- IC50 (PF-382): 177 nM
- IC50 (YT): > 1280 nM
- IC50 (JIYOYE): > 1280 nM
- IC50 (DMS-153): > 1280 nM
- IC50 (NB1): > 1280 nM
- IC50 (LU-165): > 1280 nM
- IC50 (NCI-H187): > 1280 nM
- IC50 (NCI-H2081): > 1280 nM
- IC50 (K052): > 1280 nM
- IC50 (P31-FUJ): > 1280 nM
- IC50 (MDA-MB-134-VI): > 1280 nM
- IC50 (NCI-H719): > 1280 nM
- IC50 (SR): > 1280 nM
- IC50 (BL-41): 291 nM
- IC50 (TE-441-T): > 1280 nM
- IC50 (CESS): > 1280 nM
- IC50 (CPC-N): > 1280 nM
- IC50 (LC4-1): > 1280 nM
- IC50 (NCI-H2171): > 1280 nM
- IC50 (SK-MM-2): > 1280 nM
- IC50 (SNU-16): > 1280 nM
- IC50 (NCI-H64): > 1280 nM

Structure (SMILES): Cc1[nH]c(/C=C2\C(=O)Nc3ccc(S(=O)(=O)Cc4c(Cl)cccc4Cl)cc32)c(C)c1C(=O)N1CCC[C@@H]1CN1CCCC1 [PHA-665752]
- IC50 (PF-382): > 2000 nM
- IC50 (YT): > 2000 nM
- IC50 (JIYOYE): > 2000 nM
- IC50 (DMS-153): > 2000 nM
- IC50 (NB1): > 2000 nM
- IC50 (LU-165): > 2000 nM
- IC50 (NCI-H187): > 2000 nM
- IC50 (NCI-H2081): > 2000 nM
- IC50 (K052): > 2000 nM
- IC50 (P31-FUJ): > 2000 nM
- IC50 (MDA-MB-134-VI): > 2000 nM
- IC50 (NCI-H719): > 2000 nM
- IC50 (SR): > 2000 nM
- IC50 (BL-41): > 2000 nM
- IC50 (TE-441-T): > 2000 nM
- IC50 (UACC-812): > 2000 nM
- IC50 (CESS): > 2000 nM
- IC50 (CPC-N): > 2000 nM
- IC50 (LC4-1): > 2000 nM
- IC50 (NCI-H2171): > 2000 nM
- IC50 (SK-MM-2): > 2000 nM
- IC50 (SNU-16): > 2000 nM
- IC50 (NCI-H64): > 2000 nM
